The values below come from patent publication US12220398B2, “Tumor therapeutic agent” (Eisai R&D Management Co., Ltd., priority 2015, dated 2025).

The structures appear in SMILES notation.

What all share (assay type): in vivo
The subject of test [1] is human osteosarcoma cell line (G-292 clone A141B1). The test can be described thus: Tumor growth inhibitory activity against human osteosarcoma cell line (G-292 clone A141B1) subcutaneous transplantation models. Particulars: G-292 clone A141B1 s.c. xenograft in NOD SCID mice, lenvatinib mesylate 3 mg/kg p.o. Day 1-7, ifosfamide 250 mg/kg i.p. Day 1, etoposide 8 mg/kg i.p. Day 2-4, control group 362.5.
Procedure: Using 6 NOD SCID mice (NOD.CB17-Prkdc^scid/J, female mice, Charles River Laboratories Japan, Inc.) in each group, antitumor effects were evaluated when lenvatinib alone, a combination of two agents, i.e., ifosfamide and etoposide, or a combination of three agents, i.e., lenvatinib, ifosfamide, and etoposide, was administered. Cells of osteosarcoma cell line G-292 clone A141B1 (JCRB Cell Bank, IFO50107) derived from human were suspended at a concentration of 1×10^8 cells/mL, and 0.1 mL of the suspension was subcutaneously transplanted to the right flank of each mouse.
The longest diameter and short axis of the tumor were measured with an electronic digital caliper (Digimatic (tread mark) Caliper, Mitutoyo Corporation) 29 days after transplantation. The mice were divided into groups so that the average value of the tumor volume of each group was almost equal (Day 1). The tumor volume was calculated according to the following equation: Tumor volume=longest diameter(mm)×short axis(mm)×short axis(mm)/2
Lenvatinib mesylate was dissolved in purified water to a concentration of 0.3 mg/mL. lfosfamide (Sigma Aldrich) was dissolved in a physiological saline solution to a concentration of 25 mg/mL. […]
(§1) The tumor volume of each mouse was measured 8 days (Day 8) after the start of administration.

The test system of test [2] is human osteosarcoma cell line (HOS). The test can be described thus: Tumor growth inhibitory activity against human osteosarcoma cell line (HOS) subcutaneous transplantation models. Particulars: HOS s.c. xenograft in NOD SCID mice, lenvatinib mesylate 3 mg/kg p.o. Day 1-7, ifosfamide 250 mg/kg i.p. Day 1, etoposide 8 mg/kg i.p. Day 2-4, control group 468.6. A general note: In xenograft studies the graft and the host belong to different species.
Procedure: Tumor growth inhibitory activity of the combined use of lenvatinib, ifosfamide, and etoposide against human osteosarcoma cell line (HOS) subcutaneous transplantation models
Using 6 NOD SOD mice (NOD.CB17-Prkdc^scid/J, female mice, Charles River Laboratories Japan, Inc.) in each group, antitumor effects were evaluated when lenvatinib alone, a combination of two agents, i.e., ifosfamide and etoposide, or a combination of three agents, i.e., lenvatinib, ifosfamide, and etoposide, was administered. Cells of osteosarcoma cell line HOS (Human Science Research Resources Bank, IFO50106) derived from human were suspended at a concentration of 1×10^8 cells/mL, and 0.1 mL of the suspension was subcutaneously transplanted to the right of each mouse.
The longest diameter and short axis of the tumor were measured with an electronic digital caliper (Digimatic (tread mark) Caliper, Mitutoyo Corporation) 18 days after transplantation. The mice were divided into groups so that the average value of the tumor volume of each group was almost equal (Day 1). The tumor volume was calculated according to the following equation: Tumor volume=longest diameter(mm)×short axis(mm)×short axis(mm)/2
Lenvatinib mesylate was dissolved in purified water to a concentration of 0.3 mg/mL. […]
as §1

In test [3] the test system is human osteosarcoma cell line (143B). Nature of the test: Tumor growth inhibitory activity against human osteosarcoma cell line (143B) subcutaneous transplantation models. Particulars: 143B s.c. xenograft in NOD SCID mice, lenvatinib mesylate 3 mg/kg p.o. Day 1-7, ifosfamide 250 mg/kg i.p. Day 1, etoposide 8 mg/kg i.p. Day 2-4, control group 785.4.
Procedure: Using 6 NOD SCID mice (NOD.CB17-Prkdc^scid/J, female mice, Charles River Laboratories Japan, Inc.) in each group, antitumor effects were evaluated when lenvatinib alone, a combination of two agents, i.e., ifosfamide and etoposide, or a combination of three agents, i.e., lenvatinib, ifosfamide, and etoposide, was administered. Cells of osteosarcoma cell line 143B (ATCC CRL-8303) derived from human were suspended at a concentration of 1×10^7 cells/mL, and 0.1 mL of the suspension was subcutaneously transplanted to the right flank of each mouse.
The longest diameter and short axis of the tumor were measured with an electronic digital caliper (Digimatic (tread mark) Caliper, Mitutoyo Corporation) 9 days after transplantation. The mice were divided into groups so that the average value of the tumor volume of each group was almost equal (Day 1). The tumor volume was calculated according to the following equation: Tumor volume=longest diameter(mm)×short axis(mm)×short axis(mm)/2
Lenvatinib mesylate was dissolved in purified water to a concentration of 0.3 mg/mL. Ifosfamide (Sigma Aldrich) was dissolved in a physiological saline solution to a concentration of 25 mg/mL. […]
as §1

Consider `COc1cc2nccc(Oc3ccc(NC(=O)NC4CC4)c(Cl)c3)c2cc1C(N)=O` [Lenvatinib, 4-(3-chloro-4-(cyclopropylaminocarbonyl)aminophenoxy)-7-methoxy-6-quinolinecarboxamide], for which the “Average tumor volume (Day 8)” value in test [1] was 267.9 mm^3; in test [2], 352.2 mm^3; in test [3] it was 438.6 mm^3.
